Test results taken from patent US11434242B2, “Dopamine-b-hydroxylase inhibitors” (BIAL-PORTELA & Cª, S.A., priority 2017, dated 2022).
Read-outs that look alike come from different tables or passages of the source. Marks after values point to notes of the source that are not given here.

Key:
DβH = molecular target: T1, DβH (Homo sapiens, UniProt P09172); experiment: DβH inhibition assay in SK-N-SH cellular homogenates (tyramine to octopamine); assay type: biochemical; settings: SK-N-SH cell homogenate; for SKNSH (0.1 μM), activity in % of control: inhibitor 0.1 μM; for SKNSH (1 μM), activity in % of control: inhibitor 1 μM
T1 construct: cellular homogenate (75 μg total protein); host or cells: SK-N-SH cells (homogenate)
T1 sequence (P09172 1-617): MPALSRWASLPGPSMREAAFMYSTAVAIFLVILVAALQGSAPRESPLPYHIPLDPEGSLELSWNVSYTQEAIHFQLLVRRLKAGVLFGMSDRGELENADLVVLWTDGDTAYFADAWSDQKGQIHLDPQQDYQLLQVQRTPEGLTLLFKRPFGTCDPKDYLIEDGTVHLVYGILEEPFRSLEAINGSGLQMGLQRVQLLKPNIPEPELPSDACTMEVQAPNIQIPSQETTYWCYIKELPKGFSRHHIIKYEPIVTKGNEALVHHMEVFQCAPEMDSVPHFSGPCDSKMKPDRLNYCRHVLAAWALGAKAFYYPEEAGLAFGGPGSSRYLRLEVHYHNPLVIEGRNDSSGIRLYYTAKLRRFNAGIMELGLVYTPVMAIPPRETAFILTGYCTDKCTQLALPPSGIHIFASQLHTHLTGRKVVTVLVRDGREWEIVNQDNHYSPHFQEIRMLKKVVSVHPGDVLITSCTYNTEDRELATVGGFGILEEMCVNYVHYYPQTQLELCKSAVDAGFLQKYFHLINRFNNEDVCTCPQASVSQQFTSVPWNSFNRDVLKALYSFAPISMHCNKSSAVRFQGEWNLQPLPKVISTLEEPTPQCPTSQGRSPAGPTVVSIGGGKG

[1] = molecular target: T2, Dopamine beta hydroxylase (Homo sapiens, UniProt P09172); experiment: Dopamine beta hydroxylase activity in human plasma; assay type: biochemical; settings: for Plasma (1 μM), activity in % of control: inhibitor 1 μM
T2 construct: 125 μl of plasma; tissue Instituto Português do Sangue Transplantação; host or cells: human plasma from healthy donors
T2 sequence (P09172 40-617 limits assumed): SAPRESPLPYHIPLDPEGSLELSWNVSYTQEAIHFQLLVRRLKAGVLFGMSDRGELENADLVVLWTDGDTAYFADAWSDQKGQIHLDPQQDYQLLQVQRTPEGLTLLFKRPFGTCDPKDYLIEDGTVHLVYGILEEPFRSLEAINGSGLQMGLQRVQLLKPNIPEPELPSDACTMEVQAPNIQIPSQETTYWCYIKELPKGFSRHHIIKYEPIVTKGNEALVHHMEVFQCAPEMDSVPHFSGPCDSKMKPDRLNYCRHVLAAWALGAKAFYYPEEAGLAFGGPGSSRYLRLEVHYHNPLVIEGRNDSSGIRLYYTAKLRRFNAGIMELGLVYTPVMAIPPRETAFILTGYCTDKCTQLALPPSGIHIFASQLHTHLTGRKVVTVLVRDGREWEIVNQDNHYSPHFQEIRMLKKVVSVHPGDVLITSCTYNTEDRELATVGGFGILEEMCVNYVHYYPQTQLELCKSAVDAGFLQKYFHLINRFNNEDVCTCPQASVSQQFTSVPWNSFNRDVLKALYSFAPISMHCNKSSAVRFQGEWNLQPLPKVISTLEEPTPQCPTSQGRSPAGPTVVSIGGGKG
Outline: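 Healthy-donor human plasma pre-incubated 10 min at 37° C with compound at final 10, 100 or 1000 nM in pH 5.0 acetate buffer with ascorbate, fumarate, pargyline, N-ethylmaleimide, catalase and copper sulfate. Tyramine substrate then added for 45 min; octopamine formed was isolated by SCX cartridge, periodate-converted and read at 330 nm; activity given as % control.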

[2] = Evaluation of pharmacokinetic profile: plasma and brain concentrations after oral dosing; assay type: in vivo, Wistar rats; settings: rat, 10 mg/kg po; for concentration at 1 h / concentration at 2 h: male, Wistar; for concentration at 1 h: 1 h post-dosing; for concentration at 2 h: 2 h post-dosing
Procedure: Adult male Wistar rats were kept under controlled environmental conditions (12 h light/dark cycle, room temperature 22±1° C. and humidity 50±5%, food and tap water ad libitum). On the day before the experiment, the animals were fasted. In experiments designed to evaluate the pharmacokinetic profile of Examples 56, 66, 199 and 232, rats (n=4) were administered orally (p.o.) with examples 56, 66, 199 and 232 (10 mg/kg/4 mL; vehicle: 40% kleptose) and plasma and brain samples were collected from anaesthetized animals at 1 and 2 h post-dosing. Animals were anaesthetized by intraperitoneal administration of sodium pentobarbital (60 mg/kg). Blood was collected from cardiac punction into heparinised tubes and kept on ice until centrifugation at 1,500 g for 15 min at 4° C. Plasma and brain samples were stored at less than −20° C. until analysis.
After thawing, 200 μL of acetonitrile 0.1% formic acid was added to 100 μL of plasma. The samples were vortexed and centrifuged for 10 min at 10 000 g. Supernatant was filtered and injected into a mass spectrometer.
After thawing and weighing, water was added to the brain to give a tissue concentration of […]. The samples were then homogenized using a Heidolph DIAX 900 mixer and transferred to plastic tubes. Following centrifugation at 10 000 g for 20 min, supernatant was taken and treated as described for plasma.

[3] = brain, read-out: Cbr (ng/g) at 1 h
[4] = brain, read-out: Cbr (ng/g) at 2 h
[5] = plasma, read-out: Cpl (ng/mL) at 1 h
[6] = plasma, read-out: Cpl (ng/mL) at 2 h

Compound	SKNSH (0.1 μM), activity in % of control (DβH)	SKNSH (1 μM), activity in % of control (DβH)	Plasma (0.1 μM), activity in % of control ([1]; inhibitor 0.1 μM)	Plasma (1 μM), activity in % of control [1]	concentration at 1 h [2, 3]	concentration at 2 h [2, 4]	concentration at 1 h [2, 5]	concentration at 2 h [2, 6]	peripheral selectivity (exposure in plasma compared to brain) [2]	Plasma (0.01 μM), activity in % of control ([1]; inhibitor 0.01 μM)	Plasma (0.01 μM), activity in % of control, re-test (asterisked) ([1]; inhibitor 0.01 μM, re-tested under the same experimental conditions, asterisked data believed to be correct)	Plasma (0.1 μM), activity in % of control, re-test (asterisked) ([1]; inhibitor 0.1 μM, re-tested under the same experimental conditions, asterisked data believed to be correct)
OCc1[nH]c(=S)n2c1[C@@H]1C[C@]1(c1cc(F)cc(F)c1)C2 [Example 50, (5aS,6aR)-5a-(3,5-difluorophenyl)-1-(hydroxymethyl)-5,5a,6,6a-tetrahydrocyclopropa[3,4]pyrrolo[1,2-c]imidazole-3(2H)-thione]	57.5 % of control	1.8 % of control	–	–	–	–	–	–	–	–	–	–
O=C(O)Cc1[nH]c(=S)n2c1[C@@H]1C[C@]1(c1c(F)ccc(Br)c1F)C2 [Example 51, 2-((5aS,6aR)-5a-(3-bromo-2,6-difluorophenyl)-3-thioxo-2,3,5,5a,6,6a-hexahydrocyclopropa[3,4]pyrrolo[1,2-c]imidazol-1-yl)acetic Acid]	0.4 % of control	0 % of control	5.7 % of control	0 % of control	–	–	–	–	–	–	–	–
O=C(O)Cc1[nH]c(=S)n2c1[C@@H]1C[C@]1(c1cc(Cl)ccc1F)C2 [Example 52, 2-((5aS,6aR)-5a-(5-chloro-2-fluorophenyl)-3-thioxo-2,3,5,5a,6,6a-hexahydrocyclopropa[3,4]pyrrolo[1,2-c]imidazol-1-yl)acetic Acid]	9.2 % of control	0.2 % of control	10.3 % of control	1.6 % of control	–	–	–	–	–	–	–	–
O=C(O)Cc1[nH]c(=S)n2c1[C@@H]1C[C@]1(c1cc(F)cc(Cl)c1)C2 [Example 53, 2-((5aS,6aR)-5a-(3-chloro-5-fluorophenyl)-3-thioxo-2,3,5,5a,6,6a-hexahydrocyclopropa[3,4]pyrrolo[1,2-c]imidazol-1-yl)acetic Acid]	13.4 % of control	0 % of control	26.2 % of control	2.7 % of control	–	–	–	–	–	–	–	–
CCOC(=O)Cc1[nH]c(=S)n2c1[C@@H]1C[C@]1(c1cc(Cl)ccc1F)C2 [Example 54, Ethyl 2-((5aS,6aR)-5a-(5-chloro-2-fluorophenyl)-3-thioxo-2,3,5,5a,6,6a-hexahydrocyclopropa[3,4]pyrrolo[1,2-c]imidazol-1-yl)acetate]	33.8 % of control	4.2 % of control	32.2 % of control	3.4 % of control	–	–	–	–	–	–	–	–
CCOC(=O)Cc1[nH]c(=S)n2c1[C@@H]1C[C@]1(c1cc(F)cc(Cl)c1)C2 [Example 55, Ethyl 2-((5aS,6aR)-5a-(3-chloro-5-fluorophenyl)-3-thioxo-2,3,5,5a,6,6a-hexahydrocyclopropa[3,4]pyrrolo[1,2-c]imidazol-1-yl)acetate]	48.9 % of control	3.9 % of control	62.1 % of control	11.1 % of control	–	–	–	–	–	–	–	–
NC(=O)Cc1[nH]c(=S)n2c1[C@@H]1C[C@]1(c1cc(Cl)ccc1F)C2 [Example 56]	45.6 % of control	5.2 % of control	38.5 % of control	5.5 % of control	20 ng/g	21 ng/g	1500 ng/mL	1130 ng/mL	peripherally selective	–	–	–
NC(=O)Cc1[nH]c(=S)n2c1[C@@H]1C[C@]1(c1c(F)ccc(Br)c1F)C2 [Example 57, 2-((5aS,6aR)-5a-(3-bromo-2,6-difluorophenyl)-3-thioxo-2,3,5,5a,6,6a-hexahydrocyclopropa[3,4]pyrrolo[1,2-c]imidazol-1-yl)acetamide]	11.6 % of control	0.2 % of control	18.1 % of control	0.1 % of control	–	–	–	–	–	–	–	–
NC(=O)Cc1[nH]c(=S)n2c1[C@@H]1C[C@]1(c1cc(F)cc(Cl)c1)C2 [Example 58, 2-((5aS,6aR)-5a-(3-chloro-5-fluorophenyl)-3-thioxo-2,3,5,5a,6,6a-hexahydrocyclopropa[3,4]pyrrolo[1,2-c]imidazol-1-yl)acetamide]	56.8 % of control	9.3 % of control	59.2 % of control	14.0 % of control	–	–	–	–	–	–	–	–
O=C(Cc1[nH]c(=S)n2c1[C@@H]1C[C@]1(c1cc(Cl)ccc1F)C2)N1CCOCC1 [Example 66, 2-((5aS,6aR)-5a-(5-chloro-2-fluorophenyl)-3-thioxo-2,3,5,5a,6,6a-hexahydrocyclopropa[3,4]pyrrolo[1,2-c]imidazol-1-yl)-1-morpholinoethan-1-one]	–	–	52.3 % of control	6.4 % of control	0 ng/g	0 ng/g	779 ng/mL	429 ng/mL	peripherally selective	–	–	–
Cl.Fc1cc(F)c(F)c([C@H]2Cc3c(CCN4CCOCC4)[nH]c(=S)n3C2)c1F [Example 199, (R)-1-(2-morpholinoethyl)-6-(2,3,5,6-tetrafluorophenyl)-2,5,6,7-tetrahydro-3H-pyrrolo[1,2-c]imidazole-3-thione Hydrochloride]	–	–	0.6 % of control	–	45 ng/g	0 ng/g	1640 ng/mL	777 ng/mL	peripherally selective	27.4 % of control	119.3* % of control	84.9* % of control
Cn1c(CC(=O)N[C@@H]2CCOC2)c2n(c1=S)C[C@H](c1c(F)ccc(Br)c1F)C2 [Example 232, 2-((S)-6-(3-bromo-2,6-difluorophenyl)-2-methyl-3-thioxo-2,5,6,7-tetrahydro-3H-pyrrolo[1,2-c]imidazol-1-yl)-N—((R)-tetrahydrofuran-3-yl)acetamide]	–	–	6.4 % of control	–	24 ng/g	46 ng/g	1710 ng/mL	1310 ng/mL	peripherally selective	48.8 % of control	–	–
